From patent publication US7531543B2, “Phenylpiperazine cycloalkanol derivatives and methods of their use” (Wyeth, priority 2003, dated 2009)
Structures can show the parent of a compound that is named as a salt.

Molecular target: T1, human hNET (Homo sapiens, UniProt P23975)
T1 construct: expressed in transfected cells; host or cells: MDCK-Net6 (MDCK cells stably transfected with hNET)
Assay: Norepinephrine (NE) uptake assay in MDCK-Net6 cells
Type: cell-based
Details: [3H]NE uptake, MDCK-Net6 cells stably transfected with hNET; for inhibition at 1 µM: 1 μM test compound; for EC50: test range 1 to 10,000 nM
Experimental: MDCK-Net6 cells, stably transfected with human hNET (Pacholczyk, T., R. D. Blakely, and S. G. Amara, Nature, 1991, 350(6316): p. 350-4) were cultured in growth medium containing high glucose DMEM (Gibco, Cat. No. 11995), 10% FBS (dialyzed, heat-inactivated, US Bio-Technologies, Lot FBD1129HI) and 500 µg/ml G418 (Gibco, Cat. No. 10131). Cells were plated at 300,000/T75 flask and cells were split twice weekly. The JAR cell line (human placental choriocarcinoma) was purchased from ATCC (Cat. No. HTB-144). The cells were cultured in growth medium containing RPMI 1640 (Gibco, Cat. No. 72400), 10% FBS (Irvine, Cat. No. 3000), 1% sodium pyruvate (Gibco, Cat. No. 1136) and 0.25% glucose. Cells were plated at 250,000 cells/T75 flask and split twice weekly. For all assays, cells were plated in Wallac 96-well sterile plates (PerkinElmer, Cat. No. 3983498).
Norepinephrine (NE) Uptake Assay
On day 1, cells were plated at 3,000 cells/well in growth medium and maintained in a cell incubator (37° C., 5% CO2). On day 2, growth medium was replaced with 200 μl of assay buffer (25 mM HEPES; 120 mM NaCl; 5 mM KCl; 2.5 mM CaCl2; 1.2 mM MgSO4; 2 mg/ml glucose (pH 7.4, 37° C.)) containing 0.2 mg/ml ascorbic acid and 10 μM pargyline. Plates containing cells with 200 μl of assay buffer were equilibrated for 10 minutes at 37° C. prior to addition of compounds. A stock solution of desipramine was prepared in DMSO (10 mM) and delivered to triplicate wells containing cells for a final test concentration of 1 μM. Data from these wells were used to define non-specific NE uptake (minimum NE uptake). Test compounds were prepared in DMSO (10 mM) and diluted in assay buffer according to test range (1 to 10,000 nM). Twenty-five microliters of assay buffer (maximum NE uptake) or test compound were added directly to triplicate wells containing cells in 200 μl of assay buffer. The cells in assay buffer with test compounds were incubated for 20 minutes at 37° C. To initiate the NE uptake, [^3H]NE diluted in assay buffer (120 nM final assay concentration) was delivered in 25 μl aliquots to each well and the plates were incubated for 5 minutes (37° C.). The reaction was terminated by decanting the supernatant from the plate. The plates containing cells were washed twice with 200 μl assay buffer (37° C.) to remove free radioligand. The plates were then inverted, left to dry for 2 minutes, then reinverted and air-dried for an additional 10 minutes. The cells were lysed in 25 μl of 0.25 N NaOH solution (4° C.), placed on a shake table and vigorously shaken for 5 minutes. After cell lysis, 75 μl of scintillation cocktail was added to each well and the plates were sealed with film tape. The plates were returned to the shake table and vigorously shaken for a minimum of 10 minutes to ensure adequate partitioning of organic and aqueous solutions. The plates were counted in a Wallac Microbeta counter (PerkinElmer) to collect the raw cpm data.
For each experiment, a data stream of cpm values collected from the Wallac Microbeta counter was downloaded to a Microsoft Excel statistical application program. Calculations of EC50 values were made using the transformed-both-sides logistic dose response program written by Wyeth Biometrics Department. The statistical program uses mean cpm values from wells representing maximum binding or uptake (assay buffer) and mean cpm values from wells representing minimum binding or uptake ((1 μM desipramine (hNET) or 1 μM paroxetine (hSERT)). Estimation of the EC50 value was completed on a log scale and the line was fit between the maximum and minimum binding or uptake values. All graphic data representation was generated by normalizing each data point to a mean percent based on the maximum and minimum binding or uptake values. The EC50 values reported from multiple experiments were calculated by pooling the raw data from each experiment and analyzing the pooled data as one experiment.

T1 sequence (P23975 whole entry): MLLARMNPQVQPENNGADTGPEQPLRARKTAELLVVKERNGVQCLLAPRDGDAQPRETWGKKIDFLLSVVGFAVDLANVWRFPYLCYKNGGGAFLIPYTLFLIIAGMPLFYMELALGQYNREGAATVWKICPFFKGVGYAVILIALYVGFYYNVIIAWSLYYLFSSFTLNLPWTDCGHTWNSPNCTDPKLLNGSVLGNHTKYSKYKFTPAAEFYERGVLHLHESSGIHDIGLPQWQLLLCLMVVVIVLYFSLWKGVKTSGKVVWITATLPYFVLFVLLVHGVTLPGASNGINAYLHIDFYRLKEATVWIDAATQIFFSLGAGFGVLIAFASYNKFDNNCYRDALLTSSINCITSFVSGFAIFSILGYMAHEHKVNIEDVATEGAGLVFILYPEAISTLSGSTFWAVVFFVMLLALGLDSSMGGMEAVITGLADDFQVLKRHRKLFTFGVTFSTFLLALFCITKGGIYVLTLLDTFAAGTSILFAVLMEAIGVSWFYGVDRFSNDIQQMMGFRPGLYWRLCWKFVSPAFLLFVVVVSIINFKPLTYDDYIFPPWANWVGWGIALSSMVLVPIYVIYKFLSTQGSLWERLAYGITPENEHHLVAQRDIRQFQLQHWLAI

| Structure (SMILES) | inhibition at 1 µM [%] | EC50 [nM] |
| --- | --- | --- |
| C[C@@H]1CN(CC(c2cccc(Cl)c2)C2(O)CCCCC2)C[C@H](C)N1 (stereo partly drawn) [Example 2, 1-{1-(3-chlorophenyl)-2-[(3R,5S)-3,5-dimethylpiperazin-1-yl]ethyl}cyclohexanol dihydrochloride] | 97 | 150 |
| OC1(C(CN2CCNCC2)c2cccc(F)c2)CCC1 (stereo not drawn) [Example 22, 1-[1-(3-fluorophenyl)-2-piperazin-1-ylethyl]cyclobutanol dihydrochloride] | 34 |  |
| OC1(C(CN2CCNCC2)c2ccc(F)cc2)CCC1 (stereo not drawn) [Example 19, 1-[1-(4-fluorophenyl)-2-piperazin-1-ylethyl]cyclobutanol dihydrochloride] | 43 |  |
| CN1CCN(CC(c2cccc(Br)c2)C2(O)CCCCCCC2)CC1 (stereo not drawn) [Example 40, 1-[1-(3-bromophenyl)-2-(4-methylpiperazin-1-yl)ethyl]cyclooctanol dihydrochloride] | 44 |  |
| OC1(C(CN2CCNCC2)c2ccc(Br)cc2)CCC1 (stereo not drawn) [Example 12, 1-[1-(4-bromophenyl)-2-piperazin-1-ylethyl]cyclobutanol dihydrochloride] | 55 |  |
| OC1(C(CN2CCNCC2)c2ccccc2F)CCCCC1 (stereo not drawn) [Example 25, 1-[1-(2-fluorophenyl)-2-piperazin-1-ylethyl]cyclohexanol dihydrochloride] | 31 |  |
| OC1(C(CN2CCNCC2)c2cccc(Br)c2)CCCCCCC1 (stereo not drawn) [Example 37, 1-[1-(3-bromophenyl)-2-piperazin-1-ylethyl]cyclooctanol dihydrochloride] | 28 |  |
| CN1CCN(CC(c2ccc(F)cc2)C2(O)CCC2)CC1 (stereo not drawn) [Example 32, 1-[1-(4-fluorophenyl)-2-(4-methylpiperazin-1-yl)ethyl]cyclobutanol dihydrochloride] | -10 |  |
| OC1(C(CN2CCNCC2)c2ccccc2Br)CCCCC1 (stereo not drawn) [Example 33, 1-[1-(2-bromophenyl)-2-piperazin-1-ylethyl]cyclohexanol dihydrochloride] | 35 |  |
| OC1(C(CN2CCNCC2)c2ccc(F)cc2)CCCCC1 (stereo not drawn) [Example 11, 1-[1-(4-fluorophenyl)-2-piperazin-1-ylethyl]cyclohexanol dihydrochloride] | 60 | 6400 |
| CN1CCN(CC(c2ccccc2F)C2(O)CCC2)CC1 (stereo not drawn) [Example 31, 1-[1-(2-fluorophenyl)-2-(4-methylpiperazin-1-yl)ethyl]cyclobutanol dihydrochloride] | -6 |  |
| OC1([C@@H](CN2CCNCC2)c2cccc(Cl)c2)CCCCC1 [Example 35, 1-[(1R)-1-(3-chlorophenyl)-2-piperazin-1-ylethyl]cyclohexanol dihydrochloride] |  | 540 |
| OC1(C(CN2CCNCC2)c2ccc(Cl)cc2)CCC1 (stereo not drawn) [Example 18, 1-[1-(4-chlorophenyl)-2-piperazin-1-ylethyl]cyclobutanol dihydrochloride] | 44 |  |
| CN1CCN(CC(c2cccc(Cl)c2)C2(O)CCCCCCC2)CC1 (stereo not drawn) [Example 39, 1-[1-(3-chlorophenyl)-2-(4-methylpiperazin-1-yl)ethyl]cyclooctanol dihydrochloride] | 42 |  |
| C[C@@H]1CN(CC(c2cccc(Cl)c2)C2(O)CCCCC2)CCN1 (stereo partly drawn) [Example 5, 1-{1-(3-chlorophenyl)-2-[(3R)-3-methylpiperazin-1-yl]ethyl}cyclohexanol dihydrochloride] | 94 | 110 |
| OC1(C(CN2CCNCC2)c2cccc(Br)c2)CCCCCC1 (stereo not drawn) [Example 7, 1-[1-(3-bromophenyl)-2-piperazin-1-ylethyl]cycloheptanol dihydrochloride] | 86 |  |

| Structure (SMILES) | inhibition at 1 µM [%] | EC50 [nM] |
| --- | --- | --- |
| OC1(C(CN2CCNCC2)c2cccc(Cl)c2)CCCCCC1 (stereo not drawn) [Example 8, 1-[1-(3-chlorophenyl)-2-piperazin-1-ylethyl]cycloheptanol dihydrochloride] | 81 |  |
| OC1(C(CN2CCNCC2)c2cccc(C(F)(F)F)c2)CCC1 (stereo not drawn) [Example 14, 1-{2-piperazin-1-yl-1-[3-(trifluoromethyl)phenyl]ethyl}cyclobutanol dihydrochloride] | 27 |  |
| CN1CCN(CC(c2cccc(F)c2)C2(O)CCC2)CC1 (stereo not drawn) [Example 29, 1-[1-(3-fluorophenyl)-2-(4-methylpiperazin-1-yl)ethyl]cyclobutanol dihydrochloride] | 12 |  |
| CN1CCN(CC(c2ccc(Br)cc2)C2(O)CCC2)CC1 (stereo not drawn) [Example 21, 1-[1-(4-bromophenyl)-2-(4-methylpiperazin-1-yl)ethyl]cyclobutanol dihydrochloride] | 36 |  |
| OC1(C(CN2CCNCC2)c2cccc(Br)c2)CCC1 (stereo not drawn) [Example 27, 1-[1-(3-bromophenyl)-2-piperazin-1-ylethyl]cyclobutanol dihydrochloride] | 22 |  |
| OC1([C@H](CN2CCNCC2)c2cccc(Cl)c2)CCCCC1 [Example 34, 1-[(1S)-1-(3-chlorophenyl)-2-piperazin-1-ylethyl]cyclohexanol dihydrochloride] |  | 25 |
| C[C@H]1CN(CC(c2cccc(Cl)c2)C2(O)CCCCC2)CCN1 (stereo partly drawn) [Example 4, 1-{1-(3-chlorophenyl)-2-[(3S)-3-methylpiperazin-1-yl]ethyl}cyclohexanol dihydrochloride] | 95 | 59 |
| OC1(C(CN2CCNCC2)c2cccc(Cl)c2)CCCCCCC1 (stereo not drawn) [Example 36, 1-[1-(3-chlorophenyl)-2-piperazin-1-ylethyl]cyclooctanol dihydrochloride] | 28 |  |
| OC1(C(CN2CCNCC2)c2cccc(Cl)c2)CCCC1 (stereo not drawn) [Example 10, 1-[1-(3-chlorophenyl)-2-piperazin-1-ylethyl]cyclopentanol dihydrochloride] | 63 |  |
| OC1(C(CN2CCNCC2)c2cccc(Br)c2)CCCC1 (stereo not drawn) [Example 16, 1-[1-(3-bromophenyl)-2-piperazin-1-ylethyl]cyclopentanol dihydrochloride] | 51 |  |
| OC1(C(CN2CCNCC2)c2ccc(Cl)c(Cl)c2)CCCCC1 (stereo not drawn) [Example 6, 1-[1-(3,4-dichlorophenyl)-2-piperazin-1-ylethyl]cyclohexanol dihydrochloride] | 87 | 210 |
| OC1(C(CN2CCNCC2)c2cccc(F)c2)CCCCC1 (stereo not drawn) [Example 9, 1-[1-(3-fluorophenyl)-2-piperazin-1-ylethyl]cyclohexanol dihydrochloride] | 79 | 720 |
| OC1(C(CN2CCNCC2)c2cccc(Br)c2)CCCCC1 (stereo not drawn) [Example 3, 1-[1-(3-bromophenyl)-2-piperazin-1-ylethyl]cyclohexanol dihydrochloride] | 96 | 100 |
| COc1ccc(C(CN2CCNCC2)C2(O)CCCCCCC2)cc1Br (stereo not drawn) [Example 38, 1-[1-(3-bromo-4-methoxyphenyl)-2-piperazin-1-ylethyl]cyclooctanol dihydrochloride] | 42 |  |
| CN1CCN(CC(c2ccc(Cl)cc2)C2(O)CCC2)CC1 (stereo not drawn) [Example 30, 1-[1-(4-chlorophenyl)-2-(4-methylpiperazin-1-yl)ethyl]cyclobutanol dihydrochloride] | -1 |  |
| CN1CCN(CC(c2cccc(Cl)c2)C2(O)CCC2)CC1 (stereo not drawn) [Example 24, 1-[1-(3-chlorophenyl)-2-(4-methylpiperazin-1-yl)ethyl]cyclobutanol dihydrochloride] | 34 |  |
